In ChEMBL document CHEMBL3407464, “Novel 5-HT6 receptor antagonists/D2 receptor partial agonists targeting behavioral and psychological symptoms of dementia” (Eur J Med Chem, 2015):

Columns and labels:
[1] = molecular target: 5-hydroxytryptamine receptor 6 (Homo sapiens, UniProt P50406); assay: biochemical
D(2) dopamine receptor = D(2) dopamine receptor (Homo sapiens, UniProt P14416); assay: biochemical
Chain of D(2) dopamine receptor (P14416 whole entry): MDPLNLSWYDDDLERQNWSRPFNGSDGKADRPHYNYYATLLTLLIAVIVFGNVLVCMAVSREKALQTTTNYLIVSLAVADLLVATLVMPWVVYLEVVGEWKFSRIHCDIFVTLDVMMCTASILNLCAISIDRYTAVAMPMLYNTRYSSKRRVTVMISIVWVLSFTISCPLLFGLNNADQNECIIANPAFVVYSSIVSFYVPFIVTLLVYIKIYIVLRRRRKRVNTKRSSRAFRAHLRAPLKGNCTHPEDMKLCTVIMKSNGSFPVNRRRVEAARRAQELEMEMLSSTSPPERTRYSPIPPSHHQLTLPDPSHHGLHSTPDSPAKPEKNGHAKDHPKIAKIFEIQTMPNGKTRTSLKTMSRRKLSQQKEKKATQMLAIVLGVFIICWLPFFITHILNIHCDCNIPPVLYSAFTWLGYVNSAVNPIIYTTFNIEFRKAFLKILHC

Chain of 5-hydroxytryptamine receptor 6 (P50406 whole entry): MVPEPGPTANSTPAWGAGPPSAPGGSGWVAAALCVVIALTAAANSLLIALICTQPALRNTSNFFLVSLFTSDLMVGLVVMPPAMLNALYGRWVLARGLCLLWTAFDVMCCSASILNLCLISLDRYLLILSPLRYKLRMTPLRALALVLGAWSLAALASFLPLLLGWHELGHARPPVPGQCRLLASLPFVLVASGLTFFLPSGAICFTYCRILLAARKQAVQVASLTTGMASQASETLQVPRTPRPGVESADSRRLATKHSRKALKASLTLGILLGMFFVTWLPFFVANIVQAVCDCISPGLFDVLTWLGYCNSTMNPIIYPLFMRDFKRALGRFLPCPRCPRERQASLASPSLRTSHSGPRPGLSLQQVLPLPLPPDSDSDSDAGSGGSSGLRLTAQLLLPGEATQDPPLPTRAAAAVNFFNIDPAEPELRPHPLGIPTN

SMILES | Ki [1] | Ki (D(2) dopamine receptor)
NC(=O)c1ccccc1OCCCN1CCN(c2cccc3c2ccn3Cc2cccc(F)c2)CC1 | 9.9 nM | 45 nM
NC(=O)c1ccccc1OCCCCN1CCN(c2cccc3c2ccn3S(=O)(=O)c2ccccc2)CC1 | 2.8 nM | 78 nM
O=S(=O)(c1ccccc1)n1ccc2c(N3CCN(CCCCOc4ccccc4)CC3)cccc21 | 16 nM | 62 nM
O=C1CCc2ccc(OCCCCN3CCN(c4cccc5c4ccn5Cc4ccc(F)cc4)CC3)cc2N1 | 100 nM | 12 nM
NC(=O)c1ccccc1OCCCNCCc1cn(Cc2ccccc2)c2ccccc12 | 680 nM | 270 nM
O=C1CCc2ccc(OCCCCNCCc3cn(Cc4ccccc4)c4ccccc34)cc2N1 | 150 nM | 70 nM
O=S(=O)(c1ccccc1)n1ccc2c(N3CCN(CCCOc4ccccc4)CC3)cccc21 | 7.6 nM | 290 nM
O=S(=O)(c1ccccc1)n1ccc2c(N3CCN(CCCOc4ccc5ccoc5c4)CC3)cccc21 | 3.8 nM | 220 nM
NC(=O)c1ccccc1OCCCN1CCN(c2cccc3c2ccn3Cc2cccc(Cl)c2)CC1 | 12.6 nM | 76 nM
NC(=O)c1ccccc1OCCCN1CCC(c2cn(Cc3ccccc3)c3ccccc23)CC1 | 490 nM | 29 nM
CC(C)Oc1ccccc1OCCCN1CCN(c2cccc3c2ccn3S(=O)(=O)c2ccccc2)CC1 | 1.7 nM | 110 nM
NC(=O)c1ccccc1OCCCNCCc1cn(S(=O)(=O)c2ccccc2)c2ccccc12 | 62 nM | 180 nM
O=C1CCc2ccc(OCCCCN3CCC(c4cn(S(=O)(=O)c5ccccc5)c5ccccc45)CC3)cc2N1 | 140 nM | 14 nM
O=C1CCc2ccc(OCCCCN3CC=C(c4cn(S(=O)(=O)c5ccccc5)c5ccccc45)CC3)cc2N1 | 52 nM | 40 nM
O=C1CCc2ccc(OCCCCN3CC=C(c4cn(Cc5ccccc5)c5ccccc45)CC3)cc2N1 | 22 nM | 73 nM
CC(C)Oc1ccccc1OCCCCN1CCN(c2cccc3c2ccn3S(=O)(=O)c2ccccc2)CC1 | 11 nM | 120 nM
NC(=O)c1ccccc1OCCCN1CCC(c2cn(S(=O)(=O)c3ccccc3)c3ccccc23)CC1 | 57 nM | 62 nM
O=S(=O)(c1ccccc1)n1ccc2c(N3CCN(CCCOc4ccc(F)cc4)CC3)cccc21 | 5.4 nM | 67 nM
O=C1CCc2ccc(OCCCCN3CCN(c4cccc5c4ccn5Cc4ccccc4F)CC3)cc2N1 | 45 nM | 11 nM

The next lines start with the values.

Ki [1] | Ki (D(2) dopamine receptor) | SMILES
150 nM | 4.8 nM | O=C1CCc2ccc(OCCCCN3CCC(c4cn(Cc5ccccc5)c5ccccc45)CC3)cc2N1
52 nM | 120 nM | O=C1CCc2ccc(OCCCCNCCc3cn(S(=O)(=O)c4ccccc4)c4ccccc34)cc2N1
83 nM | 44 nM | NC(=O)c1ccccc1OCCCN1CCN(c2cccc3c2ccn3Cc2ccc(F)cc2)CC1
590 nM | 31 nM | NC(=O)c1ccccc1OCCCN1CC=C(c2cn(Cc3ccccc3)c3ccccc23)CC1
23 nM | – | NC(=O)c1ccccc1OCCCN1CCN(c2cccc3c2ccn3Cc2ccccc2F)CC1
2.3 nM | 23 nM | O=C1CCc2ccc(OCCCN3CCN(c4cccc5c4ccn5S(=O)(=O)c4ccccc4)CC3)cc2N1
33 nM | 160 nM | NC(=O)c1ccccc1OCCCN1CC=C(c2cn(S(=O)(=O)c3ccccc3)c3ccccc23)CC1
24 nM | 95 nM | NC(=O)c1ccccc1OCCCN1CCN(c2cccc3c2ccn3Cc2ccccc2)CC1
6.9 nM | 47 nM | O=S(=O)(c1ccccc1)n1ccc2c(N3CCN(CCCCOc4ccc(F)cc4)CC3)cccc21
